Reference: patent EP0056560A1, “Active antibiotic compositions, process for their manufacture and process for the antibiotic activity of antibiotics” (CIBA-GEIGY AG, priority 1981, dated 1982)

Legend:
Assay in all cases: Mouse protection test: i.p. infection, s.c. treatment with the antibiotic alone or combined with muramyl peptide, survivors counted
Assay type in all cases: in vivo, weisse Laboratoriums-Mäuse
[1] = tested on: Salmonella typhimurium; conditions: mice infected i.p. with 40 x 10^4 cfu Salmonella typhimurium; Cefroxadin s.c. immediately and 3 h after infection, combined with 10 mg/kg N-Acetyl-muramyl-L-alanyl-D-isoglutaminyl-L-alanyl-2-(1',2'-dipalmitoyl-sn-glycero-3'-hydroxyphosphoryloxy)-äthylamid, compared with Cefroxadin alone; survivors counted after 4 or 10 days
Description: (§1) Die hohe antibiotische Wirkung der neuen Präparate und des neuen Verfahrens kann durch "in vivo"-Versuche nachgewiesen werden, die an verschiedenen Tierarten, insbesondere an Säugetieren, wie Mäusen, durchgeführt werden. Dazu infiziert man sie mit einer letalen oder subletalen Dosis eines pathogenen Mikroorganismus und gibt dann das genannte neue Präparat bzw. die einzelnen Dosen an Muramylpeptid und Antibiotikum. Die Wirkung wird als ED50 bestimmt, das ist diejenige Dosis, bei der 50% der Tiere überleben.
(§2) Beispiel 4: Man infiziert weisse Laboratoriums-Mäuse auf i.p. Wege mit 2 x 10^4 cfu (colony forming units) Klebsiella pneumoniae, 0,1 x 10^4 cfu Pasteurella multocida oder 40 x 10^4 cfu Salmonella typhimurium in Salzlösung, so dass 90-100Z der nicht behandelten Kontrolltiere innerhalb von 48 Stunden getötet werden. Unmittelbar, sowie 3 Stunden nach der Infektion werden Gruppen zu je 10 Mäusen mit Cefroxadin, sowohl allein (ohne Muramylpeptid) als auch in Kombination mit 10 mg/kg N-Acetyl-muramyl-L-alanyl-D-isoglutaminyl-L-alanyl-2-(1',2'-dipalmitoyl-sn-glycero-3'-hydroxyphosphoryloxy)-äthylamid behandelt, wobei dieselben zweimal in Form wässriger Lösungen oder Suspensionen auf subkutanem Weg verabreicht werden. Nach 4 bzw. 10 Tagen nach erfolgter Infektion wurden die überlebenden Tiere gezählt.

[2] = tested on: Klebsiella pneumoniae; conditions: mice infected i.p. with 2 x 10^4 cfu Klebsiella pneumoniae; Cefroxadin s.c. immediately and 3 h after infection, combined with 10 mg/kg N-Acetyl-muramyl-L-alanyl-D-isoglutaminyl-L-alanyl-2-(1',2'-dipalmitoyl-sn-glycero-3'-hydroxyphosphoryloxy)-äthylamid, compared with Cefroxadin alone; survivors counted after 4 or 10 days
Description: as §1, §2

[3] = tested on: Pasteurella multocida; conditions: mice infected i.p. with 0,1 x 10^4 cfu Pasteurella multocida; Cefroxadin s.c. immediately and 3 h after infection, combined with 10 mg/kg N-Acetyl-muramyl-L-alanyl-D-isoglutaminyl-L-alanyl-2-(1',2'-dipalmitoyl-sn-glycero-3'-hydroxyphosphoryloxy)-äthylamid, compared with Cefroxadin alone; survivors counted after 4 or 10 days
Description: as §1, §2

Measured: ED50-Werte für das Antibiotikum bei kombinierter Gabe mit dem Muramylpeptid

COC1=C(C(=O)O)N2C(=O)[C@@H](NC(=O)[C@H](N)C3=CCC=CC3)[C@H]2SC1 [Cefroxadin, 7ß-[D-2-amino-2-(1,4-cyclohexadienyl)-acetamido]-3-methoxy-3-cephem-4-carbonsäure]
um ein Mehrfaches niedriger: all assays above
